Values quoted from earlier work, collected in article PMC4287394 (Clinical cancer research : an official journal of the …, 2014).

System: purified recombinant human PI3K p110β
Conditions: read-out: IC50 p110β; purified recombinant human PI3K isoforms; cited from earlier work

CS(=O)(=O)N1CCN(Cc2cc3nc(-c4cccc5[nH]ncc45)nc(N4CCOCC4)c3s2)CC1 [pictilisib, 2-(1H-indazol-4-yl)-6-(4-methanesulfonyl-piperazin-1-ylmethyl)-4-morpholin-4-yl-t hieno[3,2-d]pyrimidine]
IC50: 0.033 µM
